Square brackets hold non-standard residues; d marks the D form. Peptide text beside a SMILES is read from it. * marks the point of attachment. His(τ-Me) = Cn1cnc(C[C@H](N)C(=O)O)c1; 3Pal = N[C@@H](Cc1cccnc1)C(=O)O; Cbz = O=C(OCc1ccccc1)*; Bn = c1ccc(C*)cc1
Molecular target: T1, rat brain farnesyl protein transferase (PFT) (Rattus norvegicus, UniProt Q02293+Q04631)
T1 construct: 40-fold purified rat brain farnesyl protein transferase; from tissue; host or cells: rat brain
Test: PFT inhibitory activity assay (radiolabeled farnesyl pyrophosphate, biotinyl peptide, streptavidin beads)
Type: biochemical
Settings: 40-fold purified rat brain enzyme; 0.12 μM [3H]FPP, 0.1 μM biotinyl-Ahe-Tyr-Lys-Cys-Val-Ile-Met; 37° C., 30 minutes; read-out: IC50 (μM) against PFT
Procedure: The PFT inhibitory activity of compounds of Formula I was assayed in 30 mM potassium phosphate buffer, pH 7.4, containing 7 mM DTT, 1.2 mM MgCl2, 0.1 mM leupeptin, 0.1 mM pepstatin and 0.2 mM phenylmethylsulfonyl fluoride. Assays were performed in 96 well plates (Wallec) and employed solutions composed of varying concentrations of a compound of Formula I in 100% DMSO. Upon addition of both substrates, radiolabeled farnesyl pyrophosphate ([1-^3 H], specific activity 15--30 Ci/mmol, final concentration 0.12 μM) and (biotinyl)-Ahe-Tyr-Lys-Cys-Val-Ile-Met peptide (final concentration 0.1 μM), the enzyme reaction was started by addition of 40-fold purified rat brain farnesyl protein transferase. After incubation at 37° C. for 30 minutes, the reaction was terminated by diluting the reaction 2.5-fold with a stop buffer containing 1.5M magnesium acetate, 0.2M H3 PO4, 0.5% BSA, and strepavidin beads (Amersham) at a concentration of 1.3 mg/mL. After allowing the plate to settle for 30 minutes at room temperature, radioactivity was quantitated on a microBeta counter (model 1450, Wallec). Compounds of Formula I show IC50 values of 0.5 nM to 80 μM (see data table) in this assay and are thus valuable inhibitors of protein: farnesyl transferase enzyme which may be used in the medical treatment of tissue proliferative diseases, including cancer and restenosis.

T1 sequence (Q02293 whole entry, one chain of several): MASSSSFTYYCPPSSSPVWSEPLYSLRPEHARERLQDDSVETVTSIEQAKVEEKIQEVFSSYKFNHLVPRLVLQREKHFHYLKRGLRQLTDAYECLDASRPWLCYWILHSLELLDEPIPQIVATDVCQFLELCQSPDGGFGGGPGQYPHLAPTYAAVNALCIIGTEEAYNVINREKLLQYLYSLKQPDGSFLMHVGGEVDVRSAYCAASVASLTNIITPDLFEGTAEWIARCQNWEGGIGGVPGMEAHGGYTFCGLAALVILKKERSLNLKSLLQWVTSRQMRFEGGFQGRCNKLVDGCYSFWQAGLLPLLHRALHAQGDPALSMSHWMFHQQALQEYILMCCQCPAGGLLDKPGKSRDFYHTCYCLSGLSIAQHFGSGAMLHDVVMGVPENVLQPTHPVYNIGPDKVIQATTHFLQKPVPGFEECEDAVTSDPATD

| Compound | IC50 [µM] |
| --- | --- |
| O=C(NC(Cc1c[nH]cn1)C(=O)NC(Cc1ccc(OCc2ccccc2)cc1)C(=O)NCCCCc1ccccc1)OCc1ccccc1 [5 (64), BnOCO--D--His--Tyr(OBn)CONHCH2 CH2 CH2 CH2 Ph] | 1.7 |
| O=C(CCc1ccccc1)NC(Cc1c[nH]cn1)C(=O)NC(Cc1ccc(OCc2ccccc2)cc1)C(=O)NCc1ccccc1 [5 (80), PhCH2 CH2 CO--D--His--Tyr(OBn)CONHCH2 Ph] | 1.6 |
| CCOc1ccc(NC(=O)NC(Cc2cnc[nH]2)C(=O)NC(Cc2ccc(OCc3ccccc3)cc2)C(=O)NCCCOc2ccccc2)cc1 (centres unmarked) [5 (63), (4-EtOPh)NHCO--His--Tyr(OBn)CONHCH2 CH2 CH2 OPh] | 1 |
| O=C(CCc1ccccc1)N[C@H](Cc1c[nH]cn1)C(=O)N[C@@H](Cc1ccc(OCc2ccccc2)cc1)C(=O)NCCOCc1ccccc1 [5 (36), PhCH2 CH2 CO--D--His--Tyr(OBn)CONHCH2 CH2 OBn] | 1.9 |
| COC(=O)[C@H](COCc1ccccc1)NC(=O)[C@H](CCc1ccc(OCc2ccccc2)cc1)NC(=O)[C@@H](Cc1c[nH]cn1)NC(=O)OCc1ccccc1 [Example 15] | 30 |
| COC(=O)[C@@H](COCc1ccccc1)NC(=O)[C@H](Cc1ccc(OCc2ccccc2)cc1)NC(=O)[C@H](Cc1c[nH]cn1)NC(=O)OCc1ccccc1 [Example 9, N-[N-[N-[(Phenylmethoxy)carbonyl]-L-histidyl]-O-(phenylmethyl)-L-tyrosyl]-O-(phenylmethyl)-D-serine, methyl ester] (Cbz-His-Tyr(Bn)-[dS](Bn)-OMe) | 0.27 |
| COC(=O)[C@H](COCc1ccccc1)NC(=O)C(C)(Cc1ccc(OCc2ccccc2)cc1)NC(=O)[C@H](Cc1c[nH]cn1)NC(=O)OCc1ccccc1 (mixture of isomers) [Example 10, N-[α-Methyl-N-[N-[(phenylmethoxy)carbonyl]-L-histidyl]-O-(phenylmethyl)-DL-tyrosyl]-O-(phenylmethyl)-L-serine. methyl ester] | 0.1 |
| C[C@@](Cc1ccc(OCc2ccccc2)cc1)(NC(=O)[C@@H](Cc1c[nH]cn1)NC(=O)OCc1ccccc1)C(=O)NCCOCc1ccccc1 [Example 22] | 0.37 |
| NC(=O)[C@H](COCc1ccccc1)NC(=O)[C@H](Cc1ccc(OCc2ccccc2)cc1)NC(=O)[C@H](Cc1c[nH]cn1)NC(=O)OCc1ccccc1 [Example 1, Nα -[N-[N-[(Phenylmethoxy)carbonyl]-L-histidyl]-O-(phenylmethyl)-L-tyrosyl]-O-(phenylmethyl)-L-serinamide] (Cbz-His-Tyr(Bn)-Ser(Bn)-NH2) | 4.4 |
| CCOc1ccc(NC(=O)N[C@@H](Cc2cnc[nH]2)C(=O)N[C@H](Cc2ccc(OCc3ccccc3)cc2)C(=O)NCCCOc2ccccc2)cc1 (stereo in doubt) [Example 25, (S,R)-N-[2-(4-Benzyloxy-phenyl)-1-(3-phenoxy-propylcarbamoyl)-ethyl]-2-[3-(4-ethoxy-phenyl)-ureido]-3-(3H-imidazol-4-yl)-propionamide] | 3.7 |
| O=C(Nc1ccc(Oc2ccccc2)cc1)NC(Cc1c[nH]cn1)C(=O)NC(Cc1ccc(OCc2ccccc2)cc1)C(=O)NCCc1ccccc1 [5 (46), (4-PhOPh)NHCO--D--His--Tyr(OBn)--CONHCH2 CH2 Ph] | 1 |
| PhCH2 CH2 NHCO--D--His--Tyr(OBn)CONHCH2 CH2 [5 (27)] | 30 |
| O=C(Nc1cccc2ccccc12)N[C@H](Cc1c[nH]cn1)C(=O)N[C@@H](Cc1ccc(OCc2ccccc2)cc1)C(=O)NCc1ccccc1 [5 (60), 1-napthyl-NHCO--D--His--Tyr(OBn)CONHCH2 Ph] | 1.4 |
| CCCCNC(=O)NC(Cc1cnc[nH]1)C(=O)NC(Cc1ccc(OCc2ccccc2)cc1)C(=O)NCCCCc1ccccc1 [5 (4), BuNHCO--D--His--Tyr(OBn)--CONH(CH2)4 Ph] | 7.3 |
| O=C(NC1CCCCC1)N[C@H](Cc1c[nH]cn1)C(=O)N[C@@H](Cc1ccc(OCc2ccccc2)cc1)C(=O)NCc1ccccc1 [5 (35), c-hexyl-NHCO--D--His--Tyr(OBn)CONHCH2 Ph] | 66 |
| O=C(Nc1ccccc1)NC(Cc1c[nH]cn1)C(=O)NC(Cc1ccc(OCc2ccccc2)cc1)C(=O)NCCCOc1ccccc1 [5 (3), PhNHCO--D--His--Tyr(OBn)--CONHCH2 CH2 CH2 OPh] | 2.1 |
| CC(C)NC(=O)N[C@H](Cc1c[nH]cn1)C(=O)N[C@@H](Cc1ccc(OCc2ccccc2)cc1)C(=O)NCCCCc1ccccc1 [5 (79), (CH3)2 CHNHCO--D--His--Tyr(OBn)CONHCH2 CH2 CH2 CH2 Ph] | 3 |
| O=C(NCc1ccccc1)N[C@H](Cc1c[nH]cn1)C(=O)N[C@@H](Cc1ccc(OCc2ccccc2)cc1)C(=O)NOCc1ccccc1 [5 (52), BnNHCO--D--His--Tyr(OBn)CONHOBn] | 1.6 |
| COC(=O)[C@H](Cc1cccnc1)NC(=O)[C@H](Cc1ccc(OCc2ccccc2)cc1)NC(=O)[C@H](Cc1c[nH]cn1)NC(=O)OCc1ccccc1 [Example 24, N-[N-[N-[(Phenylmethoxy)carbonyl]-L-histidyl]-O-(phenylmethyl)-L-tyrosyl]-3-(3-pyridinyl)-L-alanine, methyl ester] (Cbz-His-Tyr(Bn)-[3Pal]-OMe) | 1 |
| COC(=O)[C@H](COCc1ccccc1)NC(=O)[C@H](Cc1ccc(OCc2ccccc2)cc1)NC(=O)[C@@H](Cc1c[nH]cn1)NC(=O)OCc1ccccc1 [Example 8, N-[N-[N-[(Phenylmethoxy)carbonyl]-D-histidyl]-O-(phenylmethyl)-L-tyrosyl]-O-(phenylmethyl)-L-serine, methyl ester] (Cbz-[dH]-Tyr(Bn)-Ser(Bn)-OMe) | 0.074 |
| CN(C(=O)OCc1ccccc1)[C@H](Cc1c[nH]cn1)C(=O)N[C@@H](Cc1ccc(OCc2ccccc2)cc1)C(=O)NCCOCc1ccccc1 [Example 21, Nα -[N-Methyl-N[(phenylmethoxy)carbonyl]-D-histidyl]-N-[2-(phenylmethoxy)ethyl]-O-(phenylmethyl)-L-tyrosinamide] | 0.31 |
| CCNC(=O)[C@H](COCc1ccccc1)NC(=O)[C@H](Cc1ccc(OCc2ccccc2)cc1)NC(=O)[C@H](Cc1c[nH]cn1)NC(=O)OCc1ccccc1 [Example 11, N-Ethyl-Nα -[N-[N-[(phenylmethoxy)carbonyl]-L-histidyl]-O-(phenylmethyl)-L-tyrosyl]-O-(phenylmethyl)-L-serinamide] (Cbz-His-Tyr(Bn)-Ser(Bn)-NHEt) | 0.17 |
| COC(=O)C(CCSC)NC(=O)C(Cc1ccc(OCc2ccccc2)cc1)NC(=O)C(Cc1cnc[nH]1)NC(=O)NCCc1ccccc1 [5 (28), PhCH2 CH2 NHCO--D--His--Tyr(OBn)CONH--Met--CO2 Me] | 0.73 |
| O=C(NCc1ccccc1)N[C@@H](Cc1c[nH]cn1)C(=O)N[C@@H](Cc1ccc(OCc2ccccc2)cc1)C(=O)NCCCOc1ccccc1 [Example 4] | 1 |
| COC(=O)[C@H](COCc1ccccc1)NC(=O)[C@H](Cc1ccc(OCc2ccccc2)cc1)NC(=O)[C@H](Cc1cn(C)cn1)NC(=O)OCc1ccccc1 [Example 13, N-[N-[1-Methyl-N-[(phenylmethoxy)carbonyl]l-L-histidyl]-O-(phenylmethyl)-L-tyrosyl]-O-(phenylmethyl)-L-serine. methyl ester] (Cbz-[His(τ-Me)]-Tyr(Bn)-Ser(Bn)-OMe) | 0.083 |
| CC(C)NC(=O)NC(Cc1cnc[nH]1)C(=O)NC(Cc1ccc(OCc2ccccc2)cc1)C(=O)NCc1ccccc1 [5 (40), (CH3)2 CHNHCO--D--His--Tyr(OBn)CONHCH2 Ph] | 0.75 |

Reference: US5830868A, “Substituted DI- and tripeptide inhibitors of protein: farnesyl transferase” (Warner-Lambert Company, priority 1996, dated 1998)
